# Measurements published in patent publication US8404643B2, “Metastin derivatives and use thereof” (priority 2005, dated 2013).
# Square brackets hold non-standard residues; d marks the D form. Peptide text beside a SMILES is read from it. Phe(4-Cl) = N[C@@H](Cc1ccc(Cl)cc1)C(=O)O; Phe(3-F) = N[C@@H](Cc1cccc(F)c1)C(=O)O; Phe(2-F) = N[C@@H](Cc1ccccc1F)C(=O)O; Arg(Me) = CNC(=N)NCCC[C@H](N)C(=O)O; Dab = NCC[C@H](N)C(=O)O; azaGly = NNC(=O)O; βAla = NCCC(=O)O
# Molecular target: T1, hOT7T175 (Homo sapiens, UniProt Q969F8)
# T1 construct: expressed in transfected cells
# Experiment: Assay for intracellular Ca ion level-increasing activity using FLIPR
# Format: cell-based
# Details: hOT7T175/CHO cells, relative to Metastin (1-54)
# Description: In accordance with the method described in JPA 2000-312590, the intracellular Ca ion level-increasing activity was measured using FLIPR.
# The stable expression cell line hOT7T175 was obtained by transfection of the expression plasmid pAK-rOT175 for animal cells into CHO/dhfr^− cells, using CellPhect Transfection Kit (Amersham Pharmacia Biotech, Inc.). First, 240 μL of Buffer A (attached to CellPhect Transfection Kit) was added to 9.6 μg of plasmid DNA dissolved in 240 μL of distilled water followed by stirring. After the mixture was settled for 10 minutes, 480 μL of Buffer B (attached to CellPhect Transfection Kit) was added to the mixture, which was vigorously stirred to form liposomes containing the DNA. Then, 4×10^5 CHO/dhfr^− cells (obtained from ATCC) were inoculated on a 60 mm Petri dish. After culturing the cells in Ham's F-12 medium (Nissui Seiyaku Co., Ltd.) supplemented with 10% fetal bovine serum (BIO WHITTAKER, Inc.) at 37° C. for 2 days in 5% carbon dioxide gas, […] of the liposomes were dropwise added to the cells on the Petri dish. After culturing the cells at 37° C. for 6 hours in 5% carbon dioxide gas, the cells were washed twice with serum-free Ham's F-12 medium and 3 mL of 15% glycerol was added to the cells on the Petri dish followed by treatment for 2 minutes. The cells were again washed twice with serum-free Ham's F-12 medium followed by incubation in Ham's F-12 medium supplemented with 10% fetal bovine serum at 37° C. for 15 hours in 5% carbon dioxide gas. The cells were dispersed by trypsin treatment to recover from the Petri dish. The recovered cells were inoculated on a 6-well plate in 1.25×10^4 cells/well and incubation was initiated at 37° C. in Dulbecco's modified Eagle medium (DMEM) medium (Nissui Seiyaku Co., Ltd.) containing 10% dialyzed fetal bovine serum (JRH BIOSCIENCES, Inc.) in 5% carbon dioxide gas. The plasmid-transfected CHO transformants grew in the medium but the non-transfected cells gradually died, accordingly the medium was exchanged on Days 1 and 2 after the initiation of incubation to remove the cells died. Approximately 20 colonies of the CHO transformants that kept growing on Days 8 to 10 after the incubation were isolated. From the cells in these colonies, cells showing high reactivity with the ligand peptide metastin (hereinafter merely referred to as hOT7T175/CHO) were selected to provide for the following experiment.
# The intracellular Ca ion level-increasing activity of the synthetic peptide in hOT7T175/CHO was determined using FLIPR (Molecular Devices, Inc.).
# hOT7T175/CHO was subcultured in DMEM supplemented with 10% dialyzed fetal bovine serum (hereinafter abbreviated as dFBS) (hereinafter referred to as 10% dFBS/DMEM) and provided for the experiment. The hOT7T175/CHO was suspended in 10% dFBS-DMEM in 15×10^4 cells/ml. The suspension was inoculated on a 96-well plate for FLIPR (Black Plate Clear Bottom, Coster, Inc.) at 200 μl/well (3.0×10^4 cells/200 μL/well), followed by incubation at 37° C. overnight in a 5% CO2 incubator (hereinafter referred to as the cell plate). Then, 21 ml of HANKS/HBSS (9.8 g of HANKS, 0.35 g of sodium hydrogencarbonate, 20 ml of 1M HEPES; after adjusting the pH to 7.4 with 1N sodium hydroxide, the mixture was sterilized by filtration), 210 μl of 250 mM Probenecid and 210 μl of fetal bovine serum (FBS) (HANKS/HBSS-Probenecid-FBS) were mixed.
# Furthermore, 2 vials of Fluo3-AM (50 μg/vial) were dissolved in 21 μL of dimethylsulfoxide and 21 μL of 20% Pluronic acid. The resulting solution was added to and mixed with 10 ml of the HANKS/HBSS-Probenecid-FBS described above. After the culture medium was removed, the mixture was dispensed onto the cell plate in 100 μl each/well, followed by incubation at 37° C. for an hour in a 5% CO2 incubator (pigment loading). The peptide was dissolved in dimethylsulfoxide in 1×10^−3 M. The peptide solution was diluted with HANKS/HBSS containing 2.5 mM Probenecid, 0.2% BSA and 0.1% CHAPS. […]
# T1 sequence (Q969F8 whole entry L364H): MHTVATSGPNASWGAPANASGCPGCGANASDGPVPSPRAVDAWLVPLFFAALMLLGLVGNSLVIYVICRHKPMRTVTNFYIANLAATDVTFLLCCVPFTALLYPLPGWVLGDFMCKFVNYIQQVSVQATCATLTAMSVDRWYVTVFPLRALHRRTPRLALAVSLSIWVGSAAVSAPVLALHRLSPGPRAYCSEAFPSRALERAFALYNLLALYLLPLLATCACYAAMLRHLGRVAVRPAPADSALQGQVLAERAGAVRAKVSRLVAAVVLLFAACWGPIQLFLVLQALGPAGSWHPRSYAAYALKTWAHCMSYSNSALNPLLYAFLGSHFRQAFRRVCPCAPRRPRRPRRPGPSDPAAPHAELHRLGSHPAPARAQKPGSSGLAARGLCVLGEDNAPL
row,Structure (SMILES),Specific Activity: intracellular Ca ion level-increasing activity [specific activity to Metastin (1-54)]
1,"CNC(=N)NCCC[C@H](NC(=O)[C@H](CC(C)C)NC(=O)NNC(=O)[C@H](Cc1ccccc1)NC(=O)[C@@H](NC(=O)[C@H](CC(N)=O)NC(=O)[C@@H](CCC(N)=O)NC(=O)[C@@H](Cc1ccc(O)cc1)NC(C)=O)[C@@H](C)O)C(=O)N[C@@H](Cc1c[nH]c2ccccc12)C(N)=O [Compound No. 738, Ac-D-Tyr-D-Gln-Asn-Thr-Phe-AzaGly-Leu-Arg(Me)-Trp-NH2] (Ac-[dY][dQ]NTF[azaGly]L[Arg(Me)]W-NH2)",1.4
2,"CNC(=N)NCCC[C@H](NC(=O)[C@H](CC(C)C)NC(=O)NNC(=O)[C@H](Cc1ccccc1)NC(=O)[C@@H](NC(=O)[C@H](CC(N)=O)NC(=O)[C@@H](Cc1cnc[nH]1)NC(=O)[C@@H](Cc1ccc(O)cc1)NC(C)=O)[C@@H](C)O)C(=O)N[C@@H](Cc1c[nH]c2ccccc12)C(N)=O [Compound No. 739, Ac-D-Tyr-D-His-Asn-Thr-Phe-AzaGly-Leu-Arg(Me)-Trp-NH2] (Ac-[dY][dH]NTF[azaGly]L[Arg(Me)]W-NH2)",1.6
3,"CNC(=N)NCCC[C@H](NC(=O)[C@H](CC(C)C)NC(=O)NNC(=O)[C@H](Cc1ccccc1)NC(=O)[C@@H](NC(=O)[C@H](CCN)NC(=O)[C@@H](Cc1c[nH]c2ccccc12)NC(=O)[C@@H](Cc1ccc(O)cc1)NC(C)=O)[C@@H](C)O)C(=O)N[C@@H](Cc1c[nH]c2ccccc12)C(N)=O [Compound No. 740, Ac-D-Tyr-D-Trp-Dab-Thr-Phe-AzaGly-Leu-Arg(Me)-Trp-NH2] (Ac-[dY][dW][Dab]TF[azaGly]L[Arg(Me)]W-NH2)",1.1
4,"CNC(=N)NCCC[C@H](NC(=O)[C@H](CC(C)C)NC(=O)NNC(=O)[C@H](Cc1ccccc1)NC(=O)[C@@H](NC(=O)[C@H](CC(N)=O)NC(=O)[C@H](C)NC(=O)[C@@H](Cc1ccc(O)cc1)NC(C)=O)[C@@H](C)O)C(=O)N[C@@H](Cc1c[nH]c2ccccc12)C(N)=O [Compound No. 742, Ac-D-Tyr-Ala-Asn-Thr-Phe-AzaGly-Leu-Arg(Me)-Trp-NH2] (Ac-[dY]ANTF[azaGly]L[Arg(Me)]W-NH2)",2.3
5,"CNC(=N)NCCC[C@H](NC(=O)[C@H](CC(C)C)NC(=O)NNC(=O)[C@H](Cc1ccccc1)NC(=O)[C@@H](NC(=O)[C@H](CC(N)=O)NC(=O)[C@H](CC(C)C)NC(=O)[C@@H](Cc1ccc(O)cc1)NC(C)=O)[C@@H](C)O)C(=O)N[C@@H](Cc1c[nH]c2ccccc12)C(N)=O [Compound No. 743, Ac-D-Tyr-Leu-Asn-Thr-Phe-AzaGly-Leu-Arg(Me)-Trp-NH2] (Ac-[dY]LNTF[azaGly]L[Arg(Me)]W-NH2)",3.4
6,"CNC(=N)NCCC[C@H](NC(=O)[C@H](CC(C)C)NC(=O)NNC(=O)[C@H](Cc1ccccc1)NC(=O)[C@@H](NC(=O)[C@H](CC(N)=O)NC(=O)[C@H](CO)NC(=O)[C@@H](Cc1ccc(O)cc1)NC(C)=O)[C@@H](C)O)C(=O)N[C@@H](Cc1c[nH]c2ccccc12)C(N)=O [Compound No. 744, Ac-D-Tyr-Ser-Asn-Thr-Phe-AzaGly-Leu-Arg(Me)-Trp-NH2] (Ac-[dY]SNTF[azaGly]L[Arg(Me)]W-NH2)",2.4
7,"CNC(=N)NCCC[C@H](NC(=O)[C@H](CC(C)C)NC(=O)NNC(=O)[C@H](Cc1ccccc1)NC(=O)[C@@H](NC(=O)[C@H](CC(N)=O)NC(=O)[C@H](CCCCN)NC(=O)[C@@H](Cc1ccc(O)cc1)NC(C)=O)[C@@H](C)O)C(=O)N[C@@H](Cc1c[nH]c2ccccc12)C(N)=O [Compound No. 745, Ac-D-Tyr-Lys-Asn-Thr-Phe-AzaGly-Leu-Arg(Me)-Trp-NH2] (Ac-[dY]KNTF[azaGly]L[Arg(Me)]W-NH2)",3.0
8,"CNC(=N)NCCC[C@H](NC(=O)[C@H](CC(C)C)NC(=O)NNC(=O)[C@H](Cc1ccccc1)NC(=O)[C@@H](NC(=O)[C@H](CC(N)=O)NC(=O)[C@H](CCC(=O)O)NC(=O)[C@@H](Cc1ccc(O)cc1)NC(C)=O)[C@@H](C)O)C(=O)N[C@@H](Cc1c[nH]c2ccccc12)C(N)=O [Compound No. 746, Ac-D-Tyr-Glu-Asn-Thr-Phe-AzaGly-Leu-Arg(Me)-Trp-NH2] (Ac-[dY]ENTF[azaGly]L[Arg(Me)]W-NH2)",2.2
9,"CNC(=N)NCCC[C@H](NC(=O)[C@H](CC(C)C)NC(=O)NNC(=O)[C@H](Cc1ccccc1)NC(=O)[C@@H](NC(=O)[C@H](CC(N)=O)NC(=O)CCNC(=O)[C@@H](Cc1ccc(O)cc1)NC(C)=O)[C@@H](C)O)C(=O)N[C@@H](Cc1c[nH]c2ccccc12)C(N)=O [Compound No. 747, Ac-D-Tyr-β-Ala-Asn-Thr-Phe-AzaGly-Leu-Arg(Me)-Trp-NH2] (Ac-[dY][βAla]NTF[azaGly]L[Arg(Me)]W-NH2)",2.6
10,"CNC(=N)NCCC[C@H](NC(=O)[C@H](CC(C)C)NC(=O)NNC(=O)[C@H](Cc1ccc(Cl)cc1)NC(=O)[C@@H](NC(=O)[C@H](CC(N)=O)NC(=O)[C@@H](Cc1c[nH]c2ccccc12)NC(=O)[C@@H](Cc1ccc(O)cc1)NC(C)=O)[C@@H](C)O)C(=O)N[C@@H](Cc1c[nH]c2ccccc12)C(N)=O [Compound No. 748, Ac-D-Tyr-D-Trp-Asn-Thr-Phe(4Cl)-AzaGly-Leu-Arg(Me)-Trp-NH2] (Ac-[dY][dW]NT[Phe(4-Cl)][azaGly]L[Arg(Me)]W-NH2)",0.4
11,"CNC(=N)NCCC[C@H](NC(=O)[C@H](CC(C)C)NC(=O)NNC(=O)[C@H](Cc1ccccc1F)NC(=O)[C@@H](NC(=O)[C@H](CC(N)=O)NC(=O)[C@@H](Cc1c[nH]c2ccccc12)NC(=O)[C@@H](Cc1ccc(O)cc1)NC(C)=O)[C@@H](C)O)C(=O)N[C@@H](Cc1c[nH]c2ccccc12)C(N)=O [Compound No. 749, Ac-D-Tyr-D-Trp-Asn-Thr-Phe(2F)-AzaGly-Leu-Arg(Me)-Trp-NH2] (Ac-[dY][dW]NT[Phe(2-F)][azaGly]L[Arg(Me)]W-NH2)",0.5
12,"CNC(=N)NCCC[C@H](NC(=O)[C@H](CC(C)C)NC(=O)NNC(=O)[C@H](Cc1cccc(F)c1)NC(=O)[C@@H](NC(=O)[C@H](CC(N)=O)NC(=O)[C@@H](Cc1c[nH]c2ccccc12)NC(=O)[C@@H](Cc1ccc(O)cc1)NC(C)=O)[C@@H](C)O)C(=O)N[C@@H](Cc1c[nH]c2ccccc12)C(N)=O [Compound No. 750, Ac-D-Tyr-D-Trp-Asn-Thr-Phe(3F)-AzaGly-Leu-Arg(Me)-Trp-NH2] (Ac-[dY][dW]NT[Phe(3-F)][azaGly]L[Arg(Me)]W-NH2)",1.0
13,"CNC(=N)NCCC[C@H](NC(=O)[C@H](CC(C)C)NC(=O)NNC(=O)[C@H](Cc1ccccc1F)NC(=O)[C@@H](NC(=O)[C@H](CC(N)=O)NC(=O)[C@H](CCCCN)NC(=O)[C@@H](Cc1ccc(O)cc1)NC(C)=O)[C@@H](C)O)C(=O)N[C@@H](Cc1c[nH]c2ccccc12)C(N)=O [Compound No. 754, Ac-D-Tyr-Lys-Asn-Thr-Phe(2F)-AzaGly-Leu-Arg(Me)-Trp-NH2] (Ac-[dY]KNT[Phe(2-F)][azaGly]L[Arg(Me)]W-NH2)",3.1
